The source of these data is US20140228279A1, “CATIONIC PEPTIDOPOLYSACCHARIDES WITH EXCELLENT BROAD- SPECTRUM ANTIMICROBIAL ACTIVITIES AND HIGH SELECTIVITY” (priority 2011, published 2014).

Data set [1] relates to human red blood cells. To be noted: cited from earlier work.
Data set [2] deals with Escherichia coli (ATCC8739). To be noted: comparator agents (#3A-#6E), previously reported; cited from earlier work.
Data set [3] concerns Escherichia coli (ATCC8739). Description: Minimal inhibitory concentration (MIC), twofold broth dilution. It is filed as cell-based. The conditions noted are these: Gram-negative; lowest concentration inhibiting growth by more than 90%. The method, then: (§1) Bacteria cells were grown overnight at 37° C. in MH broth to a mid-log phase and diluted to 10^4 to 10^5 CFU ml^−1. A twofold dilution series of 100 μl product solution in MH broth (YM broth for the fungi C. albicans and F. solani) was made on 96-well microplate, followed by the addition of 100 μl bacterial suspension (10^4 to 10^5 CFU mL^−1). The plates were incubated at 37° C. for 18-24 h (28° C., 36-48 h for fungi), and the absorbance at 600 nm was measured with a microplate reader (BIO-RAD, US). Positive control was without product, and negative control was without bacteria/fungi inoculum. MICs were determined as the lowest concentration that inhibited cell growth by more than 90%.

Data set [4] relates to Fusarium solani (ATCC36031). Described as above. To be noted: fungi; lowest concentration inhibiting growth by more than 90%. The data set is classed as cell-based. The method, then: as §1
Data set [5] deals with Candida albicans (ATCC10231). Described as above. It is filed as cell-based. To be noted: fungi; lowest concentration inhibiting growth by more than 90%. How it is done: as §1
The subject of data set [6] is Staphylococcus aureus (ATCC6538). The description is as above. It is filed as cell-based. The conditions noted are these: Gram-positive; lowest concentration inhibiting growth by more than 90%. The method, then:
as §1

In data set [7] the test system is Pseudomonas aeruginosa (ATCC9027). Described as above. It is filed as cell-based. The conditions noted are these: Gram-negative; lowest concentration inhibiting growth by more than 90%. The method, then:
as §1

Data set [8] has as its system the three bacteria (P. aeruginosa, E. coli, S. aureus). Description: MIC, summarised over the bacterial pathogens. To be noted: for MIC against the bacterial pathogens: lower bound over the three bacteria. It is filed as cell-based. The method, then: as §1
Data set [9] deals with human red blood cells. As to the kind of experiment: Hemolysis assay. The conditions noted are these: for HC50 (the concentration which is 50% hemolytic): human erythrocytes, 1 h at 37° C. The data set is classed as cell-based. The method, then: Fresh human blood (5 ml) was collected from a healthy donor. Erythrocytes were separated by centrifugation at 1000 rpm for 10 min, washed three times with Tris buffer (10 mM Tris, 150 mM NaCl, pH 7.2) and diluted to final concentration (5%, v/v). 50 μl of antimicrobial solution at different concentrations mixed with 50 μl erythrocytes stock were added to a 96-well microplate and incubated for 1 h at 37° C. with 150 rpm shaking. The microplate were centrifuged at 1,000 rpm for 10 min. 80 μl aliquots of the supernatant were then transferred to a new 96-well microplate and diluted with another 80 μl of Tris buffer. Hemolysis was measured as the absorbance at 540 nm with a microplate reader (BIO-RAD, US). Complete hemolysis was determined in Tris buffer plus 0.1% Triton x-100 as positive control, while Tris buffer was used as negative control. The percentage of hemolysis (H) was calculated using the following equation: Hemolysis=[(Op−Ob)/(Ot−Ob)]×100%, where Op is the density for a given antimicrobial agent concentration, Ob is the density for the buffer, and Ot is the density for the Triton x-100 positive control.

Data set [10] relates to all tested bacteria and fungi (P. aeruginosa, E. coli, S. aureus, C. albicans, F. solani). As to the kind of experiment: MIC, summarised over all pathogens tested. It is filed as cell-based. The conditions noted are these: for MICs for all pathogens tested: range over Gram-negative, Gram-positive bacteria and fungi. The method, then:
as §1

Data set [11] has as its system SMCs and E. coli co-culture. As to the kind of experiment: Co-culture of bacteria and mammalian cells. It is filed as cell-based. To be noted: 100 μg ml^−1, 6 h after inoculation of 1×10^5 E. coli. How it is done:
SMCs were cultured in 96-well plates from inocula of 1×10^5 cells in each well and incubated at 37° C. for 24 h in a culture medium free of any antibiotics. 1×10^5 cells E. coli was seeded in the SMC culture wells. Then CS-g-K16 was added in the SMC and E. coli co-culture wells at a concentration of 100 μg ml^−1. Wells without CS-g-K16 were used as a control. The co-culture was imaged using an inverted optical microscope (Carl Zeiss, Germany).

The test system of another data set is E. coli. As to the kind of experiment: LIVE/DEAD bacterial viability assay. It is filed as cell-based, Escherichia coli. The conditions noted are these: at MIC concentration, 15 min at 37° C. The method, then:
LIVE/DEAD assay was carried out using CS-g-K16 with E. coli. […] After incubation the cells were collected by centrifugation and stained with BacLight bacterial viability kit L13152 (Invitrogen) for 30 min at room temperature. The cells were then imaged with fluorescence microscopy (Carl Zeiss, Germany).

Another data set has as its system E. coli membrane. Description: Membrane depolarization, DiSC3(5) dye leakage. It is filed as cell-based, Escherichia coli. To be noted: 100 μg ml^−1. How it is done: Bacteria were harvested at mid-log phase, washed three times with a buffer solution of 20 mM glucose and 5 mM HEPES (pH 7.4). The bacteria was resuspended in the washing buffer with additional 0.1 M KCl, then incubated with DiSC3(5) (20 nM) until it was incorporated into the cell membrane. The CS-g-K16 was added at a concentration of 100 μg ml^−1, and the fluorescence was monitored with a fluorescence spectrometer (PerkinElmer LS55, U.S.) at λex=620 nm and λem=670 nm. Finally, 0.2 nM Gramicidin D was added to obtain the full release of the dye.

The test system of data set [12] is E. coli, P. aeruginosa, S. aureus, C. albicans, F. solani cells. As to the kind of experiment: Morphology study of microorganisms (FESEM). It is filed as cell-based. The conditions noted are these: at MIC concentration, 15 min treatment, compared with intact controls. The method, then:
After incubation the microbes were immediately fixed with glutaraldehyde (2.5%, 5 ml) solution for 4 hr. Following dehydration in a graded ethanol series (20%-100%) and drying under a nitrogen flow, the samples were coated with platinum and imaged with FESEM (JEOL JSM-6700F) for microbe morphology changes.

≈ marks a conversion by molar mass, not a printed value. Entries after “also recorded” stand apart in the source; their conditions may differ. Like-named read-outs stand apart in the source and are kept apart here.

On to `CC[C@H](C)[C@H](NC(=O)CN)C(=O)NCC(=O)N[C@@H](C)C(=O)N[C@H](C(=O)N[C@@H](CC(C)C)C(=O)N[C@@H](CCCCN)C(=O)N[C@H](C(=O)N[C@@H](CC(C)C)C(=O)N[C@H](C(=O)N[C@H](C(=O)NCC(=O)N[C@@H](CC(C)C)C(=O)N1CCC[C@H]1C(=O)N[C@@H](C)C(=O)N[C@@H](CC(C)C)C(=O)N[C@H](C(=O)N[C@@H](CO)C(=O)N[C@@H](Cc1c[nH]c2ccccc12)C(=O)N[C@H](C(=O)N[C@@H](CCCCN)C(=O)N[C@@H](CCCNC(=N)N)C(=O)N[C@@H](CCCCN)C(=O)N[C@@H](CCCNC(=N)N)C(=O)N[C@@H](CCC(N)=O)C(=O)N[C@@H](CCC(N)=O)C(N)=O)[C@@H](C)CC)[C@@H](C)CC)[C@@H](C)O)[C@@H](C)O)C(C)C)C(C)C` [Melittin], for which the “HC50 (the concentration which is 50% hemolytic)” value in the data set on human red blood cells [1] (comparator agents (#3A-#6E), previously reported) was 2 µg/mL. The “MIC E. coli” value in [2] was 13 mg/L (≈ 4.57 µM).

On to Magainin-2, for which the “HC50 (the concentration which is 50% hemolytic)” value with human red blood cells [1] was above 250 µg/mL. For the same compound, in data set [2], the “MIC E. coli” value was 125 mg/L.

As to “chitosan-graft-poly(lysine-ran-phenylalanine) [CS-g-K8F8]”, in data set [3], the “MIC E. coli” value was above 2500 mg/L. For the same compound, the “MIC F. solani” value in data set [4] is 160 mg/L. Moreover, the “MIC C. albicans” value in [5] is above 2500 mg/L. Also, the “MIC S. aureus” value in data set [6] turned out to be 2500 mg/L. Moreover, the “MIC P. aeruginosa” value in data set [7] was above 2500 mg/L. The “MIC against the bacterial pathogens” value in [8] is at least 2500 mg/L. Moreover, the “HC50 (the concentration which is 50% hemolytic)” value in the data set with human red blood cells [9] was 12500 µg/mL.

In the case of “chitosan-graft-poly(lysine-ran-phenylalanine) [CS-g-K12.5F12.5]”, in [3], the “MIC E. coli” value turned out to be 630 mg/L. The “MIC F. solani” value in data set [4] came to 80 mg/L. The “MIC C. albicans” value in data set [5] was 310 mg/L. The “MIC S. aureus” value in [6] came out at 1250 mg/L. In addition, the “MIC P. aeruginosa” value in data set [7] is 1250 mg/L. In data set [8] (for the three bacteria), the “increase of MICs compared with P(K12.5F12.5) (#5B)” value is recorded as “more than 5 times”. Moreover, the “MIC against the bacterial pathogens” value in data set [8] was at least 630 mg/L. Besides, in the data set with human red blood cells [9], the “HC50 (the concentration which is 50% hemolytic)” value was found to be 7500 µg/mL.

Consider chitosan-graft-polylysine [CS-g-K1], for which the “MIC E. coli” value in data set [3] was 80 mg/L. In [4], the “MIC F. solani” value amounted to 40 mg/L. In addition, in data set [5], the “MIC C. albicans” value came out at 40 mg/L. In data set [6], the “MIC S. aureus” value came to 160 mg/L. The “MIC P. aeruginosa” value in data set [7] stood at 80 mg/L.

In the case of chitosan-graft-polylysine [CS-g-K3-HMW], the “MIC E. coli” value in data set [3] is 80 mg/L. In [4], the “MIC F. solani” value is 40 mg/L. Besides, in data set [5], the “MIC C. albicans” value stood at 160 mg/L. The “MIC S. aureus” value in data set [6] is 160 mg/L. The “MIC P. aeruginosa” value in [7] turned out to be 310 mg/L. In addition, the “MICs relative to those of CS-g-K3 (#1B)” value in data set [10] (same grafting ratio of lysine, higher molecular weight chitosan, all five pathogens) is at least 4 fold.

On to chitosan-graft-polylysine [CS-g-K3], for which the “MIC E. coli” value in [3] came to 20 mg/L. Besides, the “MIC F. solani” value in data set [4] was determined as 10 mg/L. The “MIC C. albicans” value in data set [5] was determined as 20 mg/L. Moreover, the “MIC S. aureus” value in [6] worked out at 40 mg/L. Besides, the “MIC P. aeruginosa” value in data set [7] was 20 mg/L.

As for chitosan-graft-polylysine [CS-g-K9], in [3], the “MIC E. coli” value turned out to be 10 mg/L. For the same compound, in data set [4], the “MIC F. solani” value amounted to 5 mg/L. The “MIC C. albicans” value in data set [5] is 20 mg/L. Further, the “MIC S. aureus” value in [6] was 20 mg/L. For the same compound, in data set [7], the “MIC P. aeruginosa” value turned out to be 20 mg/L. In data set [10], the “MICs for all pathogens tested” value lay in the range of 5 to 20 µg/mL.

With chitosan-graft-polylysine [CS-g-K16], the “bacterial growth and SMCs growth in co-culture” value in data set [11] was “inhibits the bacterial growth but permits SMCs growth; also recorded: bacteria were inhibited and SMCs grew well”. For the same compound, the “MIC E. coli” value in data set [3] stood at 10 mg/L. In data set [4], the “MIC F. solani” value amounted to 5 mg/L. In addition, the “MIC C. albicans” value in data set [5] turned out to be 20 mg/L. In data set [6], the “MIC S. aureus” value is 10 mg/L. Moreover, the “MIC P. aeruginosa” value in data set [7] came to 20 mg/L. Further, the “bacterial viability by LIVE/DEAD stain (SYTO 9 / propidium iodide)” value with E. coli is listed as “renders E. coli cell membrane permeable to propidium iodide”. Also, the “membrane potential sensitive dye DiSC3(5) leakage” value in the data set on E. coli membrane is recorded as “immediate fluorescence increase”. In the data set with human red blood cells [9], the “HC50 compared with other state-of-the-art antimicrobial polymers” value was 3 to 5 orders of magnitude and the hemolytic percentage entry is “below 50%”. The “MICs for all pathogens tested” value in data set [10] lay within 5 to 20 µg/mL. Moreover, in data set [10] (range over all pathogens), the “MICs against Gram-negative and Gram-positive bacteria and fungi” value was 5-20 μml^−1. In addition, the “morphology of microbial cells (FESEM)” value in data set [12] is recorded as “exhibit obvious morphological changes”.

Consider chitosan-graft-polylysine [CS-g-K25], for which the “MIC E. coli” value in data set [3] is 10 mg/L. Moreover, the “MIC F. solani” value in data set [4] was determined as 5 mg/L. Further, the “MIC C. albicans” value in [5] was 20 mg/L. Moreover, the “MIC S. aureus” value in data set [6] was 10 mg/L. For the same compound, the “MIC P. aeruginosa” value in data set [7] amounted to 40 mg/L.
